One series has as its target T1, P-gp (U87-TxR cells) (Homo sapiens, UniProt P08183).
T1 construct: Studies were carried out with 2, 5, and TQ in U87-TxR cells with P-gp overexpression; endogenous in cells; host or cells: U87-TxR (paclitaxel-selected from U87)
The series is described as follows: Rhodamine 123 accumulation assay. Type of series: cell-based. To be noted: highest concentration, 30 min. Here is the method: Studies were carried out with 2, 5, and TQ in U87-TxR cells with P-gp overexpression. Sensitive U87 cells were used as a positive control for Rho 123 accumulation. U87-TxR cells were seeded in 6-well plates at a density of 100,000 cells/well and incubated overnight. Then, the cells were treated with 1 μM and 2 μM of compounds 2 and 5 for 24 h, 48 h, and 72 h. Thereafter, cells were incubated with 2 μM Rho 123 for an additional 30 min at 37 °C in 5% CO2. In another experimental setting, 2 μM Rho123 was simultaneously applied with increasing concentrations of 2 or 5 (1 μM, 2 μM, and 4 μM) for 30 min. At the end of the accumulation period, the samples were washed twice, resuspended in 1 mL of cold PBS, and analyzed using a CytoFLEX flow cytometer (Beckman Coulter, Indianapolis, IN, USA). The fluorescence was read in a green fluorescence channel (525 nm). At least 10, 000 events were assayed for each sample. Data were analyzed using CytExpert 2.4.0.28 software (Beckman Coulter, Indianapolis, IN, USA).

Series [1] has as its system ASK1 protein in U87 cells. The series is described as follows: ASK1 protein expression by flow cytometry, U87. The format is cell-based, human. To be noted: U87, 2 µM and 4 µM, 48 h. Here is the method:
(§1) Flow cytometry was used to assess TrxR1 and ASK1 protein expression in the U87 and U87-TxR cell lines. Cells were seeded and allowed to attach overnight before exposure to compounds 2 and 5 at final concentrations of 2 μM and 4 μM. After 48 h treatment, cells were collected by trypsinization, rinsed with PBS, and subsequently fixed in 4% PFA for 10 min at room temperature. For permeabilization, ice-cold absolute methanol was added, and the samples were maintained at −20 °C overnight. Following this step, cells were washed in PBS and incubated for 1 h in 0.5% BSA/PBS to block nonspecific binding. Pelleted cells were then resuspended in primary antibodies diluted in 0.5% BSA/PBS [(ASK1, 1:200 (ab45178, Abcam, Cambridge, UK); TrxR1, 1:500 (ab124954, Abcam, Cambridge, UK)] and incubated overnight at +4 °C. Cells were then washed in PBS and incubated for 1 h at room temperature in the dark with fluorescently labeled anti-rabbit IgG secondary antibody (Alexa Fluor 488, ab150097, Abcam, Cambridge, UK), diluted 1:1000 in 0.5% BSA/PBS. Following incubation, samples were washed, resuspended in cold PBS, and analyzed by flow cytometry. A minimum of 10,000 events per sample were acquired, and fluorescence was detected in a green fluorescence channel (525 nm). Data acquisition and processing were performed using CytExpert software (version 2.4.0.28; Beckman Coulter, Indianapolis, IN, USA).

The test system of series [2] is intracellular superoxide anion in U87 and U87-TxR cells. Nature of the series: Superoxide anion detection by DHE. To be noted: 4 µM, 24 h and 48 h. Type of series: cell-based, human. Here is the method: The levels of ROS were measured in U87 and U87-TxR cells by flow cytometry. The production of superoxide anions was detected using DHE fluorescence dye, while production of H2O2 and peroxynitrite anions was detected using DHR fluorescence dye. Cells were seeded in 6-well plates (150,000 cell/well) and incubated overnight. The cells were then treated with compounds 2 or 5 (4 μM) for 24 h and 48 h. CDDP (10 μM) was used as a positive control. After the treatment period, the cells were stained with DHE or DHR for 30 min in the dark. Following incubation, cells were harvested with trypsinization and washed twice in cold phosphate buffer solution (PBS). Fluorescence was measured on a CytoFlex flow cytometer (Beckman Coulter, Indianapolis, IN, USA). Green fluorescence from the oxidized DHR dye was detected at 525 nm, while the red fluorescence from ethidium derived from DHE was detected at 585 nm. At least 10,000 events were assayed for each sample. The results were analyzed by CytExpert 2.4.0.28 software (Beckman Coulter, Indianapolis, IN, USA).

In series [3] the test system is antioxidant-related gene mRNA in U87-TxR cells. The series is described as follows: RT-qPCR of oxidative-stress-related genes, U87-TxR. The format is cell-based, human. To be noted: 4 µM, 24 h; for increase in GPX1 mRNA expression: relative to untreated control. How it is done: (§2) Prior to RNA isolation, U87 and U87-TxR cell were treated with 4 μM 2 and 5 for 24 h. TRIzol® Reagent was used to isolate total RNA according to manufacturer’s instructions. RNA concentration was determined with NanoPhotometer N60 (Implen GmbH, Munchen, Germany). Quality was determined using electrophoresis on a 1.3% agarose gel. Reverse transcription reaction was carried out using High-Capacity cDNA Reverse Transcription Kit with RNase Inhibitor.
(§3) Quantitative RT-PCR (RT-qPCR) was performed to evaluate mRNA expression levels of CAT, GSR, SOD2, GPX1, GPX4, GST, TRX1, and TRXR1, with ACTB used as the reference gene. Reactions were carried out using Maxima SYBR Green/ROX qPCR Master Mix (Thermo Fisher Scientific, Waltham, MA, USA) in the QuantStudio™ 3 Real-Time PCR System (Applied Biosystems by Thermo Fisher Scientific). Thermocycling conditions consisted of an initial incubation at 50 °C for 5 min, followed by denaturation at 95 °C for 10 min and then 40 cycles of amplification with denaturation at 95 °C for 15 s and annealing/extension at 60 °C for 60 s. Relative gene expression levels were calculated using the ΔΔCt method, normalizing target gene expression to ACTB. All reactions were performed in technical triplicates.
On the technique in general: In qPCR the cycle at which signal appears reflects the starting amount.

Series [4] has as its system ASK1 protein in U87-TxR cells. The series is described as follows: ASK1 protein expression by flow cytometry, U87-TxR. To be noted: 48 h; for ASK1 protein levels: 2 µM and 4 µM. The format is cell-based, human. Here is the method: as §1
In general terms: In flow cytometry, cells or beads pass a laser one at a time.

In series [5] the test system is antioxidant-related gene mRNA in U87 cells. The series is described as follows: RT-qPCR of oxidative-stress-related genes, U87. The format is cell-based, human. To be noted: U87, 4 µM, 24 h; for increase in GPX1 mRNA expression: relative to untreated control. How it is done: as §2, §3

Each structure is given as a SMILES string.

The results in this text go back to publication PMC12735718, “Novel Adamantane–Sclareol Hybrids Exploit ROS Vulnerability to Overcome Multidrug-Resistance in Glioblastoma Cells” (Molecules, 2025).

T1 sequence (P08183 whole entry): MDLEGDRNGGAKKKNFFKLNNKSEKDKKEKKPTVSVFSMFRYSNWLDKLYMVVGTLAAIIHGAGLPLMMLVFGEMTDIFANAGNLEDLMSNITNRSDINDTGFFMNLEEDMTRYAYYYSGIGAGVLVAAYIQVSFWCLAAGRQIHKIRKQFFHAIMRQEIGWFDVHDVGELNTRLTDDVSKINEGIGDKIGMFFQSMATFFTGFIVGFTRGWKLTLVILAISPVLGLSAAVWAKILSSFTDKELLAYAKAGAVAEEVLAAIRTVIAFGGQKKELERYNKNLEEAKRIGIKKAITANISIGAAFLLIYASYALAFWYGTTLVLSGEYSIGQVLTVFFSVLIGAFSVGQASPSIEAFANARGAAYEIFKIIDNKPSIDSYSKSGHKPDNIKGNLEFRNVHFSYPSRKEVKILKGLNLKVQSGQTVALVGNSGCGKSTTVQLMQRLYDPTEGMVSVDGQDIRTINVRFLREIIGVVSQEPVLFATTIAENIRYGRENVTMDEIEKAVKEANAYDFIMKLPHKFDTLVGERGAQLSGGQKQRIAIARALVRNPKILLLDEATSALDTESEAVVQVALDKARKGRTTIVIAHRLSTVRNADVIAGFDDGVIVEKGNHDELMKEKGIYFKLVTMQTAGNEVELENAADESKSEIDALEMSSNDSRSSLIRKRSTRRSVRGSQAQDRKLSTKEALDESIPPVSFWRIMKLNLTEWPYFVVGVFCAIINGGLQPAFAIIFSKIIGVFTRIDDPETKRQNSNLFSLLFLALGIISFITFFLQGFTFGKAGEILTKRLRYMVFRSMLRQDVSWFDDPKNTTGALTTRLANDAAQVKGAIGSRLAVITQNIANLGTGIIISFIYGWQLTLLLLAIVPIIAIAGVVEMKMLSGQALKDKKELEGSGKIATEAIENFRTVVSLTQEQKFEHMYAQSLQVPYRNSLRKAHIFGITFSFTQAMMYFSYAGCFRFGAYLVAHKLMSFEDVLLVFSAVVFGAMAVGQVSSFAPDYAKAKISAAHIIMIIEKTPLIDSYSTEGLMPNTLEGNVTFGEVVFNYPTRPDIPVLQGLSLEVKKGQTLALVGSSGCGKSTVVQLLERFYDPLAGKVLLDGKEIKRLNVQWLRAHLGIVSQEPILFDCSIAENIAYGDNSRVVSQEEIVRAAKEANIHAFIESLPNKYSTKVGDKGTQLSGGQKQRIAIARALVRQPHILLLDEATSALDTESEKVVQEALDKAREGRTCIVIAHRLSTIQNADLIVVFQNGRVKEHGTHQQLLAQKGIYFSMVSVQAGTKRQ

`CC1(C)CCC[C@]2(C)[C@@H](CC[C@@](C)(O)/C=C/c3ccc(CNCCCCCCCCNCC45CC6CC(CC(C6)C4)C5)s3)[C@](C)(O)CC[C@@H]12` [Compound 2]: the “Rho 123 accumulation vs TQ (50 nM)” value at P-gp (U87-TxR cells) is reported as “comparable to TQ”. Besides, the ASK1 level entry in series [1] is given as “remained unchanged”. Further, in series [2], the “intracellular superoxide anion levels (DHE)” value is “no significant changes”. For the same compound, in series [3], the “CAT mRNA expression levels” value is recorded as “remained unchanged”; the GSTP gene expression entry is given as “significantly increased”; the “mRNA expression of SOD2, GSR, and GPX4” value is reported as “increase”; the “increase in GPX1 mRNA expression” value worked out at 1.9 fold. Further, the ASK1 protein levels entry in series [4] is “increased”. In series [5], the “CAT mRNA expression levels” value is reported as “remained unchanged”, the GSTP gene expression result is on record as “significantly increased”, the “TRX1 mRNA” value was “significant downregulation” and the “increase in GPX1 mRNA expression” value was 1.8 fold.

Consider `CC1(C)CCC[C@]2(C)[C@@H](CC[C@@](C)(O)/C=C/c3ccc(CNCCCCCCCCNCC45CC6CC(CC(C6)C4)C5)o3)[C@](C)(O)CC[C@@H]12` [Compound 5], for which the “Rho 123 accumulation vs TQ (50 nM)” value at P-gp (U87-TxR cells) is given as “comparable to TQ”. Besides, the ASK1 level entry in series [1] is on record as “remained unchanged”. The “intracellular superoxide anion levels (DHE)” value in series [2] is “no significant changes”. Besides, in series [3], the “CAT mRNA expression levels” value is recorded as “remained unchanged”; the GSTP gene expression result is “significantly increased”; the “mRNA expression of SOD2, GSR, and GPX4” value was “increase”; the “increase in GPX1 mRNA expression” value turned out to be 1.5 fold. In addition, in series [4], the ASK1 protein levels result is recorded as “increased”. Further, in series [4] (4 µM, not statistically significant), the ASK1 expression entry is “slightly increased”. In series [5], the “CAT mRNA expression levels” value was “remained unchanged”, the GSTP gene expression result is “significantly increased” and the “increase in GPX1 mRNA expression” value is on record as 2.2 fold.
